Experimental data reported in ChEMBL document CHEMBL4373693, “Virtual Screening Approach and Investigation of Structure-Activity Relationships To Discover Novel Bacterial Topoisomerase Inhibitors Targeting Gram-Positive and Gram-Negative Pathogens” (J Med Chem, 2019).
≈ marks a conversion by molar mass, not a printed value.

Assays:
DNA gyrase subunit A [1] = biological target: DNA gyrase subunit A (Escherichia coli K-12, UniProt P0AES4); experiment: Inhibition of Escherichia coli ATCC 25922 DNA gyrase A assessed as reduction in enzyme-mediated supercoiling of relaxed pBR322 DNA by ethidium bromide staining based gel electrophoresis method
Sequence of DNA gyrase subunit A (Escherichia coli K-12, UniProt P0AES4) (P0AES4 whole entry): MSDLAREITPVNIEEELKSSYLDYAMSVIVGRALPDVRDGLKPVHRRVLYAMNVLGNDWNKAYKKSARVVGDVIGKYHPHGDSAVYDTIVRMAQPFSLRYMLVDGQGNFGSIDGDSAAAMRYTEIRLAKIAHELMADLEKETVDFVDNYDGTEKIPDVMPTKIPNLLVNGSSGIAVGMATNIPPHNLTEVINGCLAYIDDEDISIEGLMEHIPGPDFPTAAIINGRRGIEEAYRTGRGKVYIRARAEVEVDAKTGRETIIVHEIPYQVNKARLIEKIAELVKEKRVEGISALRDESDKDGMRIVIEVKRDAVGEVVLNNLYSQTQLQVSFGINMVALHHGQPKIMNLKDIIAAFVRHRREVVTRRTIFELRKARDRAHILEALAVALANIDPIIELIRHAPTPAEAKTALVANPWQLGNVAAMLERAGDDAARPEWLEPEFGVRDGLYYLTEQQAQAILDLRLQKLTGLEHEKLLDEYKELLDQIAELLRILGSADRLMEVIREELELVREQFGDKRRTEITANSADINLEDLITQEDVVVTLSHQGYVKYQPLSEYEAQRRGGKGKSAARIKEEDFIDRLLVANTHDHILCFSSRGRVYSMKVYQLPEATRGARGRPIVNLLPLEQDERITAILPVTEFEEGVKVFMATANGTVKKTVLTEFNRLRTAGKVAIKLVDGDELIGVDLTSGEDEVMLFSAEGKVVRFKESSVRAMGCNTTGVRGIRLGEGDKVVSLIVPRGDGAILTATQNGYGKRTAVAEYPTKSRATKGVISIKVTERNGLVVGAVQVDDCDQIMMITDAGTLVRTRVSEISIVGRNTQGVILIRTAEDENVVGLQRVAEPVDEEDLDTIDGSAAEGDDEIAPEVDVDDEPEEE

DNA gyrase subunit A [2] = biological target: DNA gyrase subunit A (Staphylococcus aureus, UniProt P20831); experiment: Inhibition of Staphylococcus aureus ATCC 29213 DNA gyrase A assessed as reduction in enzyme-mediated supercoiling of relaxed pBR322 DNA by ethidium bromide staining based gel electrophoresis method
Sequence of DNA gyrase subunit A (Staphylococcus aureus, UniProt P20831) (P20831 whole entry): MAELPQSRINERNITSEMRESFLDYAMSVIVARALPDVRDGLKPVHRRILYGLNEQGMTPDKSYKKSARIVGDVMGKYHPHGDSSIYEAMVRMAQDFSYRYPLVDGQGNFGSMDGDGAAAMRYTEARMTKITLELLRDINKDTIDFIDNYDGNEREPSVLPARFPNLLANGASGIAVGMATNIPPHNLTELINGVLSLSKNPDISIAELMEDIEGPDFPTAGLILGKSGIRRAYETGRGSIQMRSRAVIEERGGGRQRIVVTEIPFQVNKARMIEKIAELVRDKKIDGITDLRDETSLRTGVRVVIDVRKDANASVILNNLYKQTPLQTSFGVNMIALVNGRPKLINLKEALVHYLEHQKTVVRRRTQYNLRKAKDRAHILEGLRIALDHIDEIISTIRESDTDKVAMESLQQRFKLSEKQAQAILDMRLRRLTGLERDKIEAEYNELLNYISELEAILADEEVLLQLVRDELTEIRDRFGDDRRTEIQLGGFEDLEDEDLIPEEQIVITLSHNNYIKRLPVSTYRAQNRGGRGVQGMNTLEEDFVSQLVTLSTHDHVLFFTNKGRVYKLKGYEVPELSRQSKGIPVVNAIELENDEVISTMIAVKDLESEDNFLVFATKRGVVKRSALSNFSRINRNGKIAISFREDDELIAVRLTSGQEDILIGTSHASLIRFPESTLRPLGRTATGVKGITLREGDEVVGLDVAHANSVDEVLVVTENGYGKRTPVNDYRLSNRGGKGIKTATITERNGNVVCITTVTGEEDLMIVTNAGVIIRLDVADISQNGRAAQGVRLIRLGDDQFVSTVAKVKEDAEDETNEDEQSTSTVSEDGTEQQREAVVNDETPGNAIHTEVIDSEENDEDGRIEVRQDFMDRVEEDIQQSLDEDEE

[3] = biological target: T1, DNA topoisomerase 4 subunit A (Escherichia coli K-12, UniProt P0AFI2); experiment: Inhibition of Escherichia coli ATCC 25922 DNA topoisomerase 4 subunit ParC assessed as reduction in decatenation of kinetoplast DNA incubated for 30 mins by ethidium bromide staining based gel electrophoresis method
T1 sequence (P0AFI2 whole entry): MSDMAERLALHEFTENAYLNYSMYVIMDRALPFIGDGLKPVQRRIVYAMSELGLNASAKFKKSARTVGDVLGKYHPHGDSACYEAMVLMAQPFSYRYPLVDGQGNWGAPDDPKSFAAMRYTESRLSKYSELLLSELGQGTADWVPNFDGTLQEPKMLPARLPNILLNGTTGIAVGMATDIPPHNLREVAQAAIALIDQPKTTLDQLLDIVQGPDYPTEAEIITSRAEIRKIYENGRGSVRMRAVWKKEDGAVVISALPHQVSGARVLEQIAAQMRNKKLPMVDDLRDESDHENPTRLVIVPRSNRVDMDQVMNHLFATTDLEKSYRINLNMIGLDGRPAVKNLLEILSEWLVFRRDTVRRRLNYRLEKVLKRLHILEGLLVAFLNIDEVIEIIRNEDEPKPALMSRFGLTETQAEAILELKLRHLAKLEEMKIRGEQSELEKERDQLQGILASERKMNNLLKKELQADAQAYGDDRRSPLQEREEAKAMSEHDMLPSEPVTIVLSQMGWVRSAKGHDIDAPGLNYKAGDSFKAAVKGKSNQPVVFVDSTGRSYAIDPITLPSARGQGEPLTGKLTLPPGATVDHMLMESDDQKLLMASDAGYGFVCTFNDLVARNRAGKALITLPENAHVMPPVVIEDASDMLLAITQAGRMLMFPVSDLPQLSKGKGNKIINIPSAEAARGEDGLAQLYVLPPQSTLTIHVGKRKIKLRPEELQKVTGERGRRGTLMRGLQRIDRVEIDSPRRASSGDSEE

[4] = biological target: DNA topoisomerase 4 subunit A (Staphylococcus aureus, UniProt P0C1U9); experiment: Inhibition of Staphylococcus aureus ATCC 29213 DNA topoisomerase 4 subunit ParC assessed as reduction in decatenation of kinetoplast DNA incubated for 30 mins by ethidium bromide staining based gel electrophoresis method
Sequence of DNA topoisomerase 4 subunit A (Staphylococcus aureus, UniProt P0C1U9) (P0C1U9 whole entry): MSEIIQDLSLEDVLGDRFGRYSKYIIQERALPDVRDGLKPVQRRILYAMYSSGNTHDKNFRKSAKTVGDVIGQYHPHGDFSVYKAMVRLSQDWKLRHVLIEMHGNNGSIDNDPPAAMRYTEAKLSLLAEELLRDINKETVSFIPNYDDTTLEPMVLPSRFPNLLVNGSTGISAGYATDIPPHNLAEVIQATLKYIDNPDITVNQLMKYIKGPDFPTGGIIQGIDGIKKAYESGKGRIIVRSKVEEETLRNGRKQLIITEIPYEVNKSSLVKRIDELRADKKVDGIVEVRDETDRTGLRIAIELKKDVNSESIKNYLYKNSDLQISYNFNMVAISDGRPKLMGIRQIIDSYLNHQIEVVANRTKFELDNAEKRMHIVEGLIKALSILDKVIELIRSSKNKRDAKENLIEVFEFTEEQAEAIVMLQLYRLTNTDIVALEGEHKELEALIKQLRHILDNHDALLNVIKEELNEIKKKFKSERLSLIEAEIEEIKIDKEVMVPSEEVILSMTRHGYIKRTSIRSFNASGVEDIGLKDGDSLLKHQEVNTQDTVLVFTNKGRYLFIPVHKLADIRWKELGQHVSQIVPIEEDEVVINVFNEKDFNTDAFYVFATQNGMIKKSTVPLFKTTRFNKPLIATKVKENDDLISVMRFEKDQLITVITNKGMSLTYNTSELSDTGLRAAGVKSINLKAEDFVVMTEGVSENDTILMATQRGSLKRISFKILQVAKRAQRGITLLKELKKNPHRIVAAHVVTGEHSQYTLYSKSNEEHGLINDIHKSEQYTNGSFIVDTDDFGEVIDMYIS

Escherichia coli = experiment: Antibacterial activity against Escherichia coli ATCC 25922 after 16 to 24 hrs by broth microdilution method; format: functional
Staphylococcus aureus [5] = experiment: Antibacterial activity against Staphylococcus aureus ATCC 29213 after 16 to 24 hrs by broth microdilution method; format: functional
Staphylococcus aureus [6] = experiment: Antibacterial activity against Staphylococcus aureus BAA-1720 after 16 to 24 hrs by broth microdilution method; format: functional
Pseudomonas aeruginosa = experiment: Antibacterial activity against Pseudomonas aeruginosa ATCC 27853 after 16 to 24 hrs by CLSI method; format: functional

SMILES | IC50 (DNA gyrase subunit A [1]) | IC50 (DNA gyrase subunit A [2]) | IC50 [3] | IC50 [4] | MIC (Escherichia coli) | MIC (Staphylococcus aureus [5]) | MIC (Staphylococcus aureus [6]) | MIC (Pseudomonas aeruginosa)
COc1cc2ccccc2c(N2CCN(CCCNc3cc(=O)oc4ccccc34)CC2)n1 | 66 µM | 43.3 µM | 2.4 µM | 137 µM |  |  |  | 
O=c1cc(N[C@H]2C[C@@H](N3CCN(c4nccc5ccccc45)CC3)C2)c2ccccc2o1 | 1.1 µM | 1.2 µM | 0.9 µM | > 100 µM |  |  |  | 
O=c1cc(NCCCN2CCN(c3nccc4ccc(F)cc34)CC2)c2ccccc2o1 | 0.8 µM | 2.8 µM | 1.7 µM | 11.8 µM |  |  |  | 
O=c1cc(NCCCN2CCN(c3nccc4ncccc34)CC2)c2ccccc2o1 | 40.6 µM | 26.8 µM | 29.3 µM | 83.8 µM |  |  |  | 
O=c1cc(NCCCN2CCN(c3nccc4ccc(F)cc34)CC2)c2c(o1)CCOC2 | 6.3 µM | 19 µM | 59 µM | 4 µM |  |  |  | 
Cc1c(NCCCN2CCN(c3nccc4ccc(F)cc34)CC2)c2ccccc2oc1=O | 1.3 µM | 16.9 µM | 2.2 µM | > 100 µM |  |  |  | 
O=c1cc(NC[C@@H](O)CN2CCN(c3nccc4ccc(F)cc34)CC2)c2ccccc2o1 | 1.1 µM | 1.6 µM | 1.3 µM | 3 µM | 2 µg/mL (≈ 4.46 µM) | 1 µg/mL (≈ 2.23 µM) | 1 µg/mL (≈ 2.23 µM) | 4 µg/mL (≈ 8.92 µM)
Cc1cccc2oc(=O)cc(NCCCN3CCN(c4nccc5ccc(F)cc45)CC3)c12 | 2.4 µM | 2.1 µM | 3.1 µM | > 100 µM |  |  |  | 
O=c1cc(NCCCN2CCN(c3nccc4ccccc34)CC2)c2cc(F)ccc2o1 | 1.2 µM | 3.9 µM | 1.3 µM | 3.1 µM | 0.5 µg/mL (≈ 1.16 µM) | 4 µg/mL (≈ 9.25 µM) | 2 µg/mL (≈ 4.62 µM) | 
O=c1cc(NCCCN2CCN(c3nccc4ccc(F)cc34)CC2)c2c(o1)CCS(=O)(=O)C2 | 2.9 µM | 7.8 µM | 52.5 µM | 2.1 µM |  |  |  | 
O=c1cc(OCCCN2CCN(c3nccc4ccccc34)CC2)c2ccccc2o1 | 6.2 µM | 28.3 µM | 22.6 µM | > 100 µM |  |  |  | 
Cc1ccc2ccnc(N3CCN(CCCNc4cc(=O)oc5ccccc45)CC3)c2c1 | 2.6 µM | 9.6 µM | 3.8 µM | 52 µM |  |  |  | 
O=c1nc(NC[C@@H](O)CN2CCN(c3nccc4ccc(F)cc34)CC2)c2ccccc2o1 | 1.5 µM | 0.6 µM | 0.4 µM | 0.3 µM | 4 µg/mL (≈ 8.9 µM) | 0.25 µg/mL (≈ 0.556 µM) | 1 µg/mL (≈ 2.22 µM) | > 8 µg/mL
Cc1cc2ccccc2c(N2CCN(CCCNc3cc(=O)oc4ccccc34)CC2)n1 | 4.8 µM | 33.1 µM |  | 7.5 µM |  |  |  | 
O=c1cc(NC[C@H](O)CN2CCN(c3nccc4ccc(F)cc34)CC2)c2ccccc2o1 | 1.8 µM | 1.5 µM | 1.1 µM | 1.7 µM | 4 µg/mL (≈ 8.92 µM) | 1 µg/mL (≈ 2.23 µM) | 0.5 µg/mL (≈ 1.11 µM) | 8 µg/mL (≈ 17.8 µM)
O=c1cc(NCCCN2CCN(c3nc(F)cc4ccccc34)CC2)c2ccccc2o1 | 0.9 µM | 2.6 µM | 1.9 µM | 7.1 µM | 4 µg/mL (≈ 9.25 µM) | 4 µg/mL (≈ 9.25 µM) | 2 µg/mL (≈ 4.62 µM) | 4 µg/mL (≈ 9.25 µM)

SMILES | IC50 (DNA gyrase subunit A [1]) | IC50 (DNA gyrase subunit A [2]) | IC50 [3] | IC50 [4] | MIC (Escherichia coli) | MIC (Staphylococcus aureus [5]) | MIC (Staphylococcus aureus [6]) | MIC (Pseudomonas aeruginosa)
O=c1cc(NCCCN2CCN(c3nc(Cl)cc4ccccc34)CC2)c2ccccc2o1 | 2.3 µM | 12.1 µM | 3.2 µM | 10.2 µM |  |  |  | 
O=c1cc(NCCN2CCN(c3nccc4ccccc34)CC2)c2ccccc2o1 |  | 6.9 µM | 6.7 µM | > 100 µM |  |  |  | 
O=C(CCN1CCN(c2nccc3ccc(F)cc23)CC1)Nc1cc(=O)oc2ccccc12 | 1.1 µM | 10.5 µM | 0.7 µM | 39.7 µM |  |  |  | 
O=C(NCCCN1CCN(c2nccc3ccccc23)CC1)c1ccccc1 | 112 µM | 20 µM | 130 µM | 489 µM | 256 µg/mL (≈ 684 µM) | 16 µg/mL (≈ 42.7 µM) | 32 µg/mL (≈ 85.5 µM) | 
O=c1cc(NCCCN2CCN(c3nccc4ccccc34)CC2)c2c(o1)CCCC2 | 7.6 µM | 3.7 µM | 7.8 µM | 52.8 µM |  |  |  | 
O=c1cc(N[C@H]2C[C@H](N3CCN(c4nccc5ccccc45)CC3)C2)c2ccccc2o1 | 2.1 µM | 5.6 µM | 2.6 µM | 11.6 µM |  |  |  | 
O=c1cc(NCCCN2CCN(c3nccc4ccc(F)cc34)CC2)c2c(o1)CCNC2 | 22.8 µM | 164 µM | 7.3 µM | > 100 µM |  |  |  | 
O=C1CN(c2nccc3ccccc23)CCN1CCCNc1cc(=O)oc2ccccc12 | 46.5 µM | > 100 µM | 28.5 µM | > 100 µM |  |  |  | 
O=c1cc(NCCCN2CCN(c3nccc4ccccc34)CC2)c2cc(Cl)ccc2o1 | 0.6 µM | 5.2 µM | 1.2 µM | 5.5 µM | 0.5 µg/mL (≈ 1.11 µM) | 8 µg/mL (≈ 17.8 µM) | 4 µg/mL (≈ 8.91 µM) | 4 µg/mL (≈ 8.91 µM)
COc1ccc2ccnc(N3CCN(CCCNc4cc(=O)oc5ccccc45)CC3)c2c1 | 3.2 µM | 1.1 µM | 0.9 µM | 6.7 µM | 4 µg/mL (≈ 9 µM) | 2 µg/mL (≈ 4.5 µM) | 1 µg/mL (≈ 2.25 µM) | 8 µg/mL (≈ 18 µM)
O=c1cc(NCCCN2CCN(c3nccc4ccc(F)cc34)CC2)c2c(o1)CCSC2 | 1.3 µM | 1.3 µM | 8 µM | 15 µM |  |  |  | 
CN(C)c1ccc2ccnc(N3CCN(CCCNc4cc(=O)oc5ccccc45)CC3)c2c1 | 5.6 µM | 4.6 µM | 8.8 µM | 11.2 µM |  |  |  | 
CN(CCCN1CCN(c2nccc3ccccc23)CC1)c1cc(=O)oc2ccccc12 | 31.7 µM | 12.1 µM | 22.9 µM | > 100 µM |  |  |  | 
N#Cc1cc2ccccc2c(N2CCN(CCCNc3cc(=O)oc4ccccc34)CC2)n1 | 5.6 µM | 3.6 µM | 3.9 µM | > 100 µM |  |  |  | 
O=c1cc(NC2CCN(CCCc3ccccc3)CC2)c2cc(Cl)ccc2o1 | > 800 µM | 27.8 µM | 4.1 µM | 100 to 200 µM |  |  |  | 
